Measurements from US6803368B2, “Antipsychotic aminomethyl derivatives of 7,8-dihydro-3H-6,9-dioxa-1,3-diaza-cyclopenta[a]naphthalene” (Wyeth, priority 2001, dated 2004).

Target: T1, dopamine D2 receptor (Rattus norvegicus, UniProt P61169)
T1 construct: from tissue; host or cells: rat striatal brain tissue homogenate
Experiment: Dopamine D2 receptor affinity, 3H-quinpirole binding in homogenized rat striatal brain tissue
Experimental: Affinity for the dopamine D2 receptor was established by a modification of the standard experimental test procedure of Seemen and Schaus, European Journal of Pharmacology 203: 105-109, 1991, wherein homogenized rat striatal brain tissue is incubated with ^3H-quinpirole and various concentrations of test compound, filtered and washed and counted in a Betaplate scintillation counter.

T1 sequence (P61169 whole entry): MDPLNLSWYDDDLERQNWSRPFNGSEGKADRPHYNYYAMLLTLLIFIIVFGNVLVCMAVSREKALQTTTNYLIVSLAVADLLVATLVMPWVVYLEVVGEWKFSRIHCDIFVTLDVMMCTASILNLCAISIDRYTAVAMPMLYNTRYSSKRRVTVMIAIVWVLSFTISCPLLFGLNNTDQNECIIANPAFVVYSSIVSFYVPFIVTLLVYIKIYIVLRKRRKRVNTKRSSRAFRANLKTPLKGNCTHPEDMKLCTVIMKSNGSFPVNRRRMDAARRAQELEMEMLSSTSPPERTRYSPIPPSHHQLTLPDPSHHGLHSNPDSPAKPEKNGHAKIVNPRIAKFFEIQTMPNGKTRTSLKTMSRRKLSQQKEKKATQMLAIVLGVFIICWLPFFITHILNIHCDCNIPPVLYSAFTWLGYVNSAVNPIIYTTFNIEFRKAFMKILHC

Row | IC50 [nM] | Compound
1 | 0.4 | FC(F)(F)c1nc2c3c(ccc2[nH]1)OC[C@H](CNCCCCc1ccccc1)O3 [Example 2, (4-Phenyl-butyl)-(2-trifluoromethyl-7,8-dihydro-3H-6,9-dioxa-1,3-diaza-cyclopenta[a]naphthalen-8-ylmethyl)-amine]
2 | 2.2 | FC(F)(F)c1nc2c3c(ccc2[nH]1)OCC(CNCc1ccccc1)O3 (stereo not drawn) [Example 3, Benzyl-(2-trifluoromethyl-7,8-dihydro-3H-6,9-dioxa-1,3-diaza-cyclopenta[a]naphthalen-8-ylmethyl)-amine]

Row | Compound | IC50 [nM]
3 | (2-Trifluoromethyl-7,8-dihydro-3H-6,9-dioxa-1,3-diaza-cyclopenta[a]naphthalen-8-yl)-methylamine [Example 1] | 260
